The record followed here is ChEMBL document CHEMBL4387741, “Optimization of novel reversible Bruton's tyrosine kinase inhibitors identified using Tethering-fragment-based screens” (Bioorg Med Chem, 2019).

Data set [1] deals with Tyrosine-protein kinase ABL1 (Homo sapiens) (UniProt P00519). Kind of data set: Inhibition of wild-type human phosphorylated ABL1 (S229 to K512 residues) expressed in mammalian expression system at 1 uM by Kinomescan method relative to control.
For data set [2], the target named is Calcium/calmodulin-dependent protein kinase type 1 (Homo sapiens) (UniProt Q14012). Kind of data set: Inhibition of wild-type human full length CAMK1 (M1 to L370 residues) expressed in bacterial expression system at 1 uM by Kinomescan method relative to control.
Data set [3] deals with Death-associated protein kinase 3 (Homo sapiens) (UniProt O43293). Kind of data set: Inhibition of wild-type human partial length DAPK3 (M1 to A277 residues) expressed in bacterial expression system at 1 uM by Kinomescan method relative to control.
Data set [4] concerns the target Serine/threonine-protein kinase DCLK3 (Homo sapiens) (UniProt Q9C098). Kind of data set: Inhibition of wild-type human partial length DCAMKL3 (E140 to V628 residues) expressed in bacterial expression system at 1 uM by Kinomescan method relative to control.
Data set [5] addresses Ephrin type-A receptor 2 (Homo sapiens) (UniProt P29317). In words: Inhibition of wild-type human partial length EPHA2 (T593 to V891 residues) expressed in bacterial expression system at 1 uM by Kinomescan method relative to control.
Data set [6] deals with Receptor-type tyrosine-protein kinase FLT3 (Homo sapiens), P36888 [UNDEFINED MUTATION]. Kind of data set: Inhibition of human partial length FLT3 ITD/D835V double mutant expressed in bacterial expression system at 1 uM by Kinomescan method relative to control.
The target of data set [7] is Mitogen-activated protein kinase kinase kinase kinase 2 (Homo sapiens) (UniProt Q12851). In words: Inhibition of wild-type human partial length MAP4K2 (M1 to G318 residues) expressed in mammalian expression system at 1 uM by Kinomescan method relative to control.
The target of data set [8] is Mitogen-activated protein kinase kinase kinase kinase 3 (Homo sapiens) (UniProt Q8IVH8). Kind of data set: Inhibition of wild-type human partial length MAP4K3 (M1 to D301 residues) expressed in bacterial expression system at 1 uM by Kinomescan method relative to control.
Data set [9] has as its target Serine/threonine-protein kinase 38-like (Homo sapiens) (UniProt Q9Y2H1). Kind of data set: Inhibition of wild-type human partial length NDR2 (N34 to E447 residues) expressed in bacterial expression system at 1 uM by Kinomescan method relative to control.
The test system of data set [10] is Phosphatidylinositol 4,5-bisphosphate 3-kinase catalytic subunit alpha isoform (Homo sapiens), P42336 [M1043I]. Kind of data set: Inhibition of human partial length PIK3CA M1043I mutant (R108 to N1068 residues) expressed in mammalian expression system at 1 uM by Kinomescan method relative to control.
Data set [11] deals with Serine/threonine-protein kinase N2 (Homo sapiens) (UniProt Q16513). Kind of data set: Inhibition of wild-type human partial length PKN2 (E634 to C984 residues) expressed in bacterial expression system at 1 uM by Kinomescan method relative to control.
For data set [12], the target named is Serine/threonine-protein kinase D2 (Homo sapiens) (UniProt Q9BZL6). Kind of data set: Inhibition of wild-type human partial length PRKD2 (A519 to E838 residues) expressed in bacterial expression system at 1 uM by Kinomescan method relative to control.
In data set [13] the target is Serine/threonine-protein kinase TAO3 (Homo sapiens) (UniProt Q9H2K8). Kind of data set: Inhibition of wild-type human partial length TAOK3 (M1 to T316 residues) expressed in mammalian expression system at 1 uM by Kinomescan method relative to control.
A short description of data set [14]: Protein binding in human plasma assessed as unbound fraction at 2 uM by rapid equilibrium dialysis method. Format: ADME, cell-free.
Data set [15] has as its target Cytoplasmic tyrosine-protein kinase BMX (Homo sapiens) (UniProt P51813). Kind of data set: Inhibition of wild-type human full length BMX (M1 to H675 residues) expressed in bacterial expression system at 10 uM by Kinomescan method relative to control.
Data set [16] has as its target Serine/threonine-protein kinase B-raf (Homo sapiens) (UniProt P15056). In words: Inhibition of wild-type human partial length BRAF (S429 to E741 residues) expressed in mammalian expression system at 10 uM by Kinomescan method relative to control.
The target of data set [17] is Serine/threonine-protein kinase DCLK1 (Homo sapiens) (UniProt O15075). In words: Inhibition of wild-type human partial length DCAMKL1 (L270 to A662 residues) expressed in mammalian expression system at 10 uM by Kinomescan method relative to control.
For data set [18], the target named is Receptor tyrosine-protein kinase erbB-3 (Homo sapiens) (UniProt P21860). In words: Inhibition of wild-type human partial length ERBB3 (G684 to A987 residues) expressed in mammalian expression system at 10 uM by Kinomescan method relative to control.
The subject of data set [19] is Fibroblast growth factor receptor 3 (Homo sapiens), P22607 [G697C]. In words: Inhibition of human partial length FGFR3 G697C mutant (R442 to S771 residues) expressed in bacterial expression system at 10 uM by Kinomescan method relative to control.
In data set [20] the test system is Receptor-type tyrosine-protein kinase FLT3 (Homo sapiens), P36888 [R834Q]. Kind of data set: Inhibition of human partial length FLT3 R834Q mutant (V592 to Y969 residues) expressed in mammalian expression system at 10 uM by Kinomescan method relative to control.
In data set [21] the target is Vascular endothelial growth factor receptor 3 (Homo sapiens) (UniProt P35916). Kind of data set: Inhibition of wild-type human partial length FLT4 (E821 to E1196 residues) expressed in bacterial expression system at 10 uM by Kinomescan method relative to control.
Data set [22] deals with Beta-adrenergic receptor kinase 1 (Homo sapiens) (UniProt P25098). In words: Inhibition of wild-type human full length GRK2 (M1 to L689 residues) expressed in mammalian expression system at 10 uM by Kinomescan method relative to control.
Sequence of Beta-adrenergic receptor kinase 1 (Homo sapiens) (P25098 whole entry, the tested form may be a part): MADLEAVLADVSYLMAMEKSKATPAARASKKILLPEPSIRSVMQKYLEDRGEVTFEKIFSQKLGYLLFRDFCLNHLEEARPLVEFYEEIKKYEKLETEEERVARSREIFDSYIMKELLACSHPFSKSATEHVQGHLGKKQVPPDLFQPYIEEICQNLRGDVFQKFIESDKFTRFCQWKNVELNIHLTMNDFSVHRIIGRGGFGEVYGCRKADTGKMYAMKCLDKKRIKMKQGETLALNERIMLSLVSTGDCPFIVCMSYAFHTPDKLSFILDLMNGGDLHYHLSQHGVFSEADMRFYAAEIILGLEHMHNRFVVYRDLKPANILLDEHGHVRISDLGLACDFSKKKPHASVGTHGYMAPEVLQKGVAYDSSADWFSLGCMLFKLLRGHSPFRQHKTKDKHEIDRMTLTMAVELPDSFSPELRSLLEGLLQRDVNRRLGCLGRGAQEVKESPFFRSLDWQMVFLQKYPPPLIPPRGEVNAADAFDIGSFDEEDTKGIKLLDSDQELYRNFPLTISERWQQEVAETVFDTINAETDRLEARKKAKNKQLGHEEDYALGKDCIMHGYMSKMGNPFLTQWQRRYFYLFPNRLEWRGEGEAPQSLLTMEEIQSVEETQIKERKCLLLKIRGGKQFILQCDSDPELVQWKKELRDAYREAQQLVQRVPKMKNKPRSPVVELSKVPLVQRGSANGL
Data set [23] addresses Mitogen-activated protein kinase 13 (Homo sapiens) (UniProt O15264). Kind of data set: Inhibition of wild-type human full length p38-delta (M1 to L365 residues) expressed in bacterial expression system at 10 uM by Kinomescan method relative to control.
Data set [24] addresses Phosphorylase b kinase gamma catalytic chain, liver/testis isoform (Homo sapiens) (UniProt P15735). In words: Inhibition of wild-type human partial length PHKG2 (M1 to W300 residues) expressed in bacterial expression system at 10 uM by Kinomescan method relative to control.
Data set [25] has as its target Ribosomal protein S6 kinase alpha-5 (Homo sapiens) (UniProt O75582). In words: Inhibition of wild-type human partial length N-terminal RPS6KA5 kinase domain 1 expressed in bacterial expression system at 10 uM by Kinomescan method relative to control.
The target in data set [26] is Serine/threonine-protein kinase SIK1 (Homo sapiens) (UniProt P57059). Kind of data set: Inhibition of wild-type human partial length SIK (M1 to Y304 residues) expressed in bacterial expression system at 10 uM by Kinomescan method relative to control.
The target of data set [27] is Dual specificity protein kinase TTK (Homo sapiens) (UniProt P33981). Kind of data set: Inhibition of wild-type human partial length TTK (N505 to V798 residues) expressed in bacterial expression system at 10 uM by Kinomescan method relative to control.

Sequence of Serine/threonine-protein kinase B-raf (Homo sapiens) (P15056 whole entry, the tested form may be a part): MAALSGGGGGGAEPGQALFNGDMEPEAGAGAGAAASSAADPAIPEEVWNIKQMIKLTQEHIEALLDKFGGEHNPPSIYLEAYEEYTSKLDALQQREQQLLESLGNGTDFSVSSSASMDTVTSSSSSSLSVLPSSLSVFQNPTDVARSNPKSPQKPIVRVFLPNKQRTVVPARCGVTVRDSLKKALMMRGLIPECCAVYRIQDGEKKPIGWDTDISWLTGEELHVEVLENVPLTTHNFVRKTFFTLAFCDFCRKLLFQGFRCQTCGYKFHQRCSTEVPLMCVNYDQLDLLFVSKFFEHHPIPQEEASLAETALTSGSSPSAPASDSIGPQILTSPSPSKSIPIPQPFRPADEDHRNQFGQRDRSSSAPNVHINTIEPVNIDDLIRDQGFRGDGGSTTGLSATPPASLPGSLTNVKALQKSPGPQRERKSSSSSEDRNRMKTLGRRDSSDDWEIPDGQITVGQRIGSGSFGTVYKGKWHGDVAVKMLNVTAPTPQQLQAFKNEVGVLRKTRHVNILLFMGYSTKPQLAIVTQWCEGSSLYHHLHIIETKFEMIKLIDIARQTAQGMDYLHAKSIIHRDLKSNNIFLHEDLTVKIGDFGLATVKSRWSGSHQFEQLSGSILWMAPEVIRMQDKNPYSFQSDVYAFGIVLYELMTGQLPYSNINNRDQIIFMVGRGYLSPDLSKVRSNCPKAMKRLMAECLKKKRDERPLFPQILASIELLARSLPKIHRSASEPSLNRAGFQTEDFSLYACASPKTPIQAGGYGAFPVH
Sequence of Serine/threonine-protein kinase DCLK3 (Homo sapiens) (Q9C098 whole entry, the tested form may be a part): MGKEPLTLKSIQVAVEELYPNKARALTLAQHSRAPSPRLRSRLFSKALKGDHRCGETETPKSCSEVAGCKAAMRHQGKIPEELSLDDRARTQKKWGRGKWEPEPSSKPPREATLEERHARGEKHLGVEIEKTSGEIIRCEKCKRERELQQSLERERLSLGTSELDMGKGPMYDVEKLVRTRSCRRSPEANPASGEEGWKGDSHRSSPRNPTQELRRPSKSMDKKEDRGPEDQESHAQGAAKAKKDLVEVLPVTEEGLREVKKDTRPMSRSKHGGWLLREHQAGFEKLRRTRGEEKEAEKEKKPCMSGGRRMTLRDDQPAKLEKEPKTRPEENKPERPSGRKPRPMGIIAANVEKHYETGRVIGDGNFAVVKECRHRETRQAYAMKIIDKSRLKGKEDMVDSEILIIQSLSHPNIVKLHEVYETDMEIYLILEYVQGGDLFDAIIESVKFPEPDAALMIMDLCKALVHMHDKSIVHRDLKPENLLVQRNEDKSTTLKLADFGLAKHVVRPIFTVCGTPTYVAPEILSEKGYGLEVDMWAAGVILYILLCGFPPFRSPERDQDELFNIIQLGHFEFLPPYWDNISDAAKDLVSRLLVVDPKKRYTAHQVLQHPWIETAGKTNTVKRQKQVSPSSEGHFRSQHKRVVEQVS
Sequence of Serine/threonine-protein kinase 38-like (Homo sapiens) (Q9Y2H1 2-464 limits assumed): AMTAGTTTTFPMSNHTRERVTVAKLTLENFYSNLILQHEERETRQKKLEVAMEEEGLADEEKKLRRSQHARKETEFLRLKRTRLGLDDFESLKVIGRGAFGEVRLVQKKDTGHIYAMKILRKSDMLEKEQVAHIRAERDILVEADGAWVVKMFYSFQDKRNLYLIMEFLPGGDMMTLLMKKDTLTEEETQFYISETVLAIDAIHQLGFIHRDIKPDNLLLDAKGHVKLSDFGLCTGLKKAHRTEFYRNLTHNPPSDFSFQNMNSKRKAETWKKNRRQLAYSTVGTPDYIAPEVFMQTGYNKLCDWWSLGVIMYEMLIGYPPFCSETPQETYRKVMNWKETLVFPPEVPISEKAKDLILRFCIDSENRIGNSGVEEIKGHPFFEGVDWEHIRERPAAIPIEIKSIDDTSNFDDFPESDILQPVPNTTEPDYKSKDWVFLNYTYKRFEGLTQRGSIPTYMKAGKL
Sequence of Tyrosine-protein kinase ABL1 (Homo sapiens) (P00519 whole entry, the tested form may be a part): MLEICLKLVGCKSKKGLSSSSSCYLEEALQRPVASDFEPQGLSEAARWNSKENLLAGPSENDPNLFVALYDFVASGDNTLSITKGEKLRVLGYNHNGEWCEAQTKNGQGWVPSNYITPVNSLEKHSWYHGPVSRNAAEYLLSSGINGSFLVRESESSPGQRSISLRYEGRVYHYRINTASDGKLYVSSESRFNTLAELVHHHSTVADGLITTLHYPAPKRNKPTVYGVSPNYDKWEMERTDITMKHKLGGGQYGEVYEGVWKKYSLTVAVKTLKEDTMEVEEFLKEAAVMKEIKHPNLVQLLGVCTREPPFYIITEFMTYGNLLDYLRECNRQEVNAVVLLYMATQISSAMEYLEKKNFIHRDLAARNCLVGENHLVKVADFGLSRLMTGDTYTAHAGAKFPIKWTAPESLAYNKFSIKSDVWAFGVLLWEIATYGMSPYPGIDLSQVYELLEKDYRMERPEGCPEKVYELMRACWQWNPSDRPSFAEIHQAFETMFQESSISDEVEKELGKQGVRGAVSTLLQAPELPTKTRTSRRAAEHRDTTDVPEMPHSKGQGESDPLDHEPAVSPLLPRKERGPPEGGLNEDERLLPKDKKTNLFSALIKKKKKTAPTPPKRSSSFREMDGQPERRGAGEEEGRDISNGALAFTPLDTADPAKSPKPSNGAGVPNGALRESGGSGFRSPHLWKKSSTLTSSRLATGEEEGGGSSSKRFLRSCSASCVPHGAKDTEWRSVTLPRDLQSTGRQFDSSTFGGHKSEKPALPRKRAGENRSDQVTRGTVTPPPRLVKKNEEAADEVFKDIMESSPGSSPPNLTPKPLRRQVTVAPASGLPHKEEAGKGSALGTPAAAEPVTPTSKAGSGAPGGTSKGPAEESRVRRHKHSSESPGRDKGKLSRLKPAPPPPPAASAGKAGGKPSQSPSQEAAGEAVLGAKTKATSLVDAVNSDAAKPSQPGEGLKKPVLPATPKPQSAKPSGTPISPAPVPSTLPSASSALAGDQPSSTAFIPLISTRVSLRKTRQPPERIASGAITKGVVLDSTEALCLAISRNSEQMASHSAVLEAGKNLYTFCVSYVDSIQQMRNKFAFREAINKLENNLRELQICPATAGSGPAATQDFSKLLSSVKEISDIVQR
Sequence of Fibroblast growth factor receptor 3 (Homo sapiens), P22607 [G697C] (P22607 whole entry G697C, the tested form may be a part): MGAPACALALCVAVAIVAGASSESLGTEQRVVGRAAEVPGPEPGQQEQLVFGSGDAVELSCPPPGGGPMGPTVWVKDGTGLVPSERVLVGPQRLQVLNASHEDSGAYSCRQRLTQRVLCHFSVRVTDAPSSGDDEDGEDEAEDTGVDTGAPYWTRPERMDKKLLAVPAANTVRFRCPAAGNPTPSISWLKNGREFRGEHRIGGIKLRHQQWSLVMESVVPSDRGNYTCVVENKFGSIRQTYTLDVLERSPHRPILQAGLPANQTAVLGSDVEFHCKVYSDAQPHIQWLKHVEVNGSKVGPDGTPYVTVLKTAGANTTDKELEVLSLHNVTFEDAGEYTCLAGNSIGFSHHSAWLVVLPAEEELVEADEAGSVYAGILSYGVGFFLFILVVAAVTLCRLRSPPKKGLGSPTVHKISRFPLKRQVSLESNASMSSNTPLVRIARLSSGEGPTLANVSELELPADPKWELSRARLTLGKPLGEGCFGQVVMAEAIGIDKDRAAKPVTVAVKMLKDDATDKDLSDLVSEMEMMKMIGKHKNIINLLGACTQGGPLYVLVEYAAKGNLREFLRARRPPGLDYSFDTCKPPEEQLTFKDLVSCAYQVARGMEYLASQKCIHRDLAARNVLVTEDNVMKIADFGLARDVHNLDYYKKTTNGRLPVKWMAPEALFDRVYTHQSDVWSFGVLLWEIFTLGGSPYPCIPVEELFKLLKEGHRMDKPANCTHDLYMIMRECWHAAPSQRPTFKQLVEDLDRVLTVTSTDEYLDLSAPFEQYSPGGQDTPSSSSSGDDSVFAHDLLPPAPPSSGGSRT
Sequence of Phosphorylase b kinase gamma catalytic chain, liver/testis isoform (Homo sapiens) (P15735 whole entry, the tested form may be a part, canonical isoform): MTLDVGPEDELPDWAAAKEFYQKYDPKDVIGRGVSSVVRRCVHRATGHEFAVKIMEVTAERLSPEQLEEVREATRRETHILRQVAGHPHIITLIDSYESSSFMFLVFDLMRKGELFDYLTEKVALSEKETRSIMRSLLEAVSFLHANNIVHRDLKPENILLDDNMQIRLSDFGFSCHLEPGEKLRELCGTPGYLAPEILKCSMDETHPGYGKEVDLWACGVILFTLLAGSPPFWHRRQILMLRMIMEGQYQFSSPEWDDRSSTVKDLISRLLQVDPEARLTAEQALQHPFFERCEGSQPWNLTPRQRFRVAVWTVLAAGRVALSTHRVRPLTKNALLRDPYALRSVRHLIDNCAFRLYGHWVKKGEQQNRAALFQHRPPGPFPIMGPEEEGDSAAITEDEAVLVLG

For the compound `O=C(Nc1cccc([C@@H]2CN(c3ncnc4[nH]ccc34)CCN2CCO)c1)Nc1c(F)cccc1N1CCCC1`, the inhibition in data set [1] stood at 62%; in [2], 95%; in [3] it was 5.2%; in data set [4], 85%; in [5] it was 98%; in [6] it was 3.5%. The inhibition in data set [7] was 82%; in data set [8] it was 71%; in [9], 100%; in data set [10], 94%; in data set [11] it was 75%; in [12], 98%. The inhibition in data set [13] came to 88%. In data set [14], the Fu amounted to 1%.
For `O=C(Nc1cccc([C@H]2CCCN(c3ncnc4[nH]ccc34)C2)c1)Nc1ccccc1N1CCCC1`, the inhibition in data set [15] turned out to be 43%; in data set [16], 35%; in data set [17], 52%; in [18], 72%; in [19], 53%; in [20], 44%. The inhibition in data set [21] came to 0.55%; in data set [22] it was 98%; in data set [23] it was 100%; in data set [24], 83%; in [25] it was 100%; in data set [26] it was 48%. The inhibition in data set [27] was 78%.
